Patent US11225507B2, “Conformation switchable antimicrobial peptides and methods of using the same” (priority 2017, dated 2022)

System: H. pylori SS1
Assay: H. pylori killing kinetics at various pHs (CFU counting, 1 h)
Type: cell-based, Helicobacter pylori
Method: H. pylori killing kinetics at various pHs. The killing kinetics of polypeptides were measured against H. pylori by counting the colony forming units (CFU) of alive bacteria with agar plating. The polypeptides at various concentrations were dissolved in the Tris-HC buffer at various pHs (pH 7.4, 4.0, 3.0). H. pylori were then collected and dispersed in the BB medium supplied with fresh urea (10 mM) and 10% FBS at different pHs (pH 7.4, 4.0, 3.0). The optical density at 600 nm of the bacteria were fixed at 0.1. The bacteria were then incubated with the polypeptides solution at corresponding pH in the incubator supplied with 10% CO2 at 37° C. Samples were taken for a series of ten-fold dilutions, and plated out in BB agar plates with 10% FBS and vancomycin (pH 7.4) after 1 h incubation. The plates were incubated for 72 h in the incubator and the bacteria were counted for CFU. Bacteria incubated with Tris-HCl buffer only at corresponding pH were served as 100% survival. Survival rate (%)=CFU of bacteria treated with polypeptides/CFU of bacteria treated with buffer×100%. The killing kinetics of antibiotics (OAC, omeprazole, amoxicillin, clarithromycin) against H. pylori were determined with a similar procedure. The antibiotics at various concentrations were dissolved in the Tris-HCl buffer at pH 7.4, or 3.0, and were then incubated with H. pylori in BB medium supplied with fresh urea (10 mM) and 10% FBS at corresponding pH in the incubator. After 1 h incubation, the bacteria were collected by centrifuge at 10,000 rcf for 5 min and washed with fresh BB medium. Samples were then taken for a series of ten-fold dilutions, and plated out in BB agar plates with 10% FBS and vancomycin. The plates were incubated for 72 h in the incubator and the bacteria were counted for CFU.

(PGA)18-r-(PHLG-MHH)20 [PL2]
bactericidal activity against SS1 (pH 3.0, 1 h incubation): higher bactericidal activity
bactericidal activity against SS1 (pH 4.0, 1 h incubation): notable bacteria killing
bactericidal activity against SS1 (pH 7.4, 1 h incubation): no bactericidal activity
